Results from paper PMC6138237, “Machine intelligence decrypts β-lapachone as an allosteric 5-lipoxygenase inhibitor” (Chemical Science, 2018).
Read-outs that look alike come from different tables or passages of the source.

Columns and labels:
Type in all cases: biochemical
NEK2 = molecular target: T1, NEK2 (Homo sapiens, UniProt P51955); test: ExpresS Diversity Kinase Profile, Cerep (LANCE): NEK2
T1 sequence (P51955 1-445): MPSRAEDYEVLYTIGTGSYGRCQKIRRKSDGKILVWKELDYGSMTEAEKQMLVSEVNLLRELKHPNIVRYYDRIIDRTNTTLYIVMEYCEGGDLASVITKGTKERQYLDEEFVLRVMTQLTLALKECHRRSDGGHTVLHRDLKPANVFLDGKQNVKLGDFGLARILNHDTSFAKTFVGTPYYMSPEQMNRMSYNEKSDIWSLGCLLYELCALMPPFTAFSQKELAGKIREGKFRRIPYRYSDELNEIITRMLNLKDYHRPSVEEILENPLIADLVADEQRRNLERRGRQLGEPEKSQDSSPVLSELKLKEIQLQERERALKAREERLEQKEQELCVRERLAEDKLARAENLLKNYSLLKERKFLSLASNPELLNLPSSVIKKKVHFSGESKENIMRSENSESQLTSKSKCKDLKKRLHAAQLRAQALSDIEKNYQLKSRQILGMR

c-Met = c-Met (Homo sapiens, UniProt P08581); test: ExpresS Diversity Kinase Profile, Cerep (LANCE): c-Met
Sequence of c-Met (P08581 25-1390): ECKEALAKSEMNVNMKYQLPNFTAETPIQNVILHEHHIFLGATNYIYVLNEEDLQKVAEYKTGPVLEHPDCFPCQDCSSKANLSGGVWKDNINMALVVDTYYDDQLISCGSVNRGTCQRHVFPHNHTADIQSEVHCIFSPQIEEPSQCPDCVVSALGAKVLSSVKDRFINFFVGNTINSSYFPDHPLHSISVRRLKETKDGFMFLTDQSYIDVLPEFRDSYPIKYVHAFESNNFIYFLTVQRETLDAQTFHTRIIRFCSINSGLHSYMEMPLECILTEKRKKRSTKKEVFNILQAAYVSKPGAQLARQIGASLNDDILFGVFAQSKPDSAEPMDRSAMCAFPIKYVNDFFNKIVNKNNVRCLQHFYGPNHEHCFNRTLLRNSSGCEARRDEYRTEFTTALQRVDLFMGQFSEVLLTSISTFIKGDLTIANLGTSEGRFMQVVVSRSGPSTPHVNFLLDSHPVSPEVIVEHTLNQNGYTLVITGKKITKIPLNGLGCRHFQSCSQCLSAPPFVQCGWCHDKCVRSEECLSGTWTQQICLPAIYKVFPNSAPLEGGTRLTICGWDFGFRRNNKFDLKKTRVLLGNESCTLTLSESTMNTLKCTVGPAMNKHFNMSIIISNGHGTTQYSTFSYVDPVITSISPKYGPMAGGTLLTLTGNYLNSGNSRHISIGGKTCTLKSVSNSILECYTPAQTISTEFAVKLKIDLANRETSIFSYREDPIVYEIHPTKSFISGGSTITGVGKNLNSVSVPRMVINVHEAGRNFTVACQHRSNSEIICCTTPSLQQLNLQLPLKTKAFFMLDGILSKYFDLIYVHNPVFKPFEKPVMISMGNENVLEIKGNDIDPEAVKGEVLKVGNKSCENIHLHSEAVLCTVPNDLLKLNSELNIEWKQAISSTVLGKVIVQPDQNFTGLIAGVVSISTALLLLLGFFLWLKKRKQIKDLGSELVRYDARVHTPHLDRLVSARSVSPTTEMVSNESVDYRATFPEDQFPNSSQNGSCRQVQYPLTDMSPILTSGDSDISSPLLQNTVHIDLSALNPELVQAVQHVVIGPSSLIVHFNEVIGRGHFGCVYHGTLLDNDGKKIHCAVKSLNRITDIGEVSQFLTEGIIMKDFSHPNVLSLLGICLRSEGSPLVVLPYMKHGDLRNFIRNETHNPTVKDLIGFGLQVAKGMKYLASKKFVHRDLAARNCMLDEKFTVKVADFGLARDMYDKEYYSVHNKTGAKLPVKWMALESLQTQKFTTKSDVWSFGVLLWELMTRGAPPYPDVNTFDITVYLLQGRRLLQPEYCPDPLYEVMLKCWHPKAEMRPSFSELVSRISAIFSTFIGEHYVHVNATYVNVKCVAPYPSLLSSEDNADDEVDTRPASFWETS

EphB4 = molecular target: T2, EphB4 (Homo sapiens, UniProt P54760); test: ExpresS Diversity Kinase Profile, Cerep (LANCE): EphB4
T2 sequence (P54760 16-987): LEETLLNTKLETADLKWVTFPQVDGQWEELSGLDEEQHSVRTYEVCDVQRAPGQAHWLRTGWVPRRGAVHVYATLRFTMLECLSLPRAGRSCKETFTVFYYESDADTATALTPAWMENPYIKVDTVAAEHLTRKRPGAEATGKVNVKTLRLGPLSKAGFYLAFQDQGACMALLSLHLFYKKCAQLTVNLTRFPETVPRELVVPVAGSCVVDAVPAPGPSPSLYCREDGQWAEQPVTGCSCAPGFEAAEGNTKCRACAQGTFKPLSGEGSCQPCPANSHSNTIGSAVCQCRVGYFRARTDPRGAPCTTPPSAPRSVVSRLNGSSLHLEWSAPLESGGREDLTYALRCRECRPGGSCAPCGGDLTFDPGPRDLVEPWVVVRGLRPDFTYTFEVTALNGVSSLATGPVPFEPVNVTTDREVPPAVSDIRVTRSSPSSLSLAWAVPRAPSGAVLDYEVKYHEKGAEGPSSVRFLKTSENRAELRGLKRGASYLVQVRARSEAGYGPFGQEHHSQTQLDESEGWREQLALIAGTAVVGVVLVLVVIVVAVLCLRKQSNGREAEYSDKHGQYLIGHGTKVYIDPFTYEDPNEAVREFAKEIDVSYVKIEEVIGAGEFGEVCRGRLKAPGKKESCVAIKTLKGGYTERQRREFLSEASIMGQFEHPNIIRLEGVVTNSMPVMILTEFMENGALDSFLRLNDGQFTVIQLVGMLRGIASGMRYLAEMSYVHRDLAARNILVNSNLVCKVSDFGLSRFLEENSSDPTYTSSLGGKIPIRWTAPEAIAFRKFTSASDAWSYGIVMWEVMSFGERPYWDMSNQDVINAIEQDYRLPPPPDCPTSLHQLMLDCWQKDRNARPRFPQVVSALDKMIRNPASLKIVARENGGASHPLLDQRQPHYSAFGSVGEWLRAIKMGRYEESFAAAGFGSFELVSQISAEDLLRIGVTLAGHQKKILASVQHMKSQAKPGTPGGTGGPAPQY

IRK = IRK (Homo sapiens, UniProt P06213); test: ExpresS Diversity Kinase Profile, Cerep (LANCE): IRK
Sequence of IRK (P06213 28-1382): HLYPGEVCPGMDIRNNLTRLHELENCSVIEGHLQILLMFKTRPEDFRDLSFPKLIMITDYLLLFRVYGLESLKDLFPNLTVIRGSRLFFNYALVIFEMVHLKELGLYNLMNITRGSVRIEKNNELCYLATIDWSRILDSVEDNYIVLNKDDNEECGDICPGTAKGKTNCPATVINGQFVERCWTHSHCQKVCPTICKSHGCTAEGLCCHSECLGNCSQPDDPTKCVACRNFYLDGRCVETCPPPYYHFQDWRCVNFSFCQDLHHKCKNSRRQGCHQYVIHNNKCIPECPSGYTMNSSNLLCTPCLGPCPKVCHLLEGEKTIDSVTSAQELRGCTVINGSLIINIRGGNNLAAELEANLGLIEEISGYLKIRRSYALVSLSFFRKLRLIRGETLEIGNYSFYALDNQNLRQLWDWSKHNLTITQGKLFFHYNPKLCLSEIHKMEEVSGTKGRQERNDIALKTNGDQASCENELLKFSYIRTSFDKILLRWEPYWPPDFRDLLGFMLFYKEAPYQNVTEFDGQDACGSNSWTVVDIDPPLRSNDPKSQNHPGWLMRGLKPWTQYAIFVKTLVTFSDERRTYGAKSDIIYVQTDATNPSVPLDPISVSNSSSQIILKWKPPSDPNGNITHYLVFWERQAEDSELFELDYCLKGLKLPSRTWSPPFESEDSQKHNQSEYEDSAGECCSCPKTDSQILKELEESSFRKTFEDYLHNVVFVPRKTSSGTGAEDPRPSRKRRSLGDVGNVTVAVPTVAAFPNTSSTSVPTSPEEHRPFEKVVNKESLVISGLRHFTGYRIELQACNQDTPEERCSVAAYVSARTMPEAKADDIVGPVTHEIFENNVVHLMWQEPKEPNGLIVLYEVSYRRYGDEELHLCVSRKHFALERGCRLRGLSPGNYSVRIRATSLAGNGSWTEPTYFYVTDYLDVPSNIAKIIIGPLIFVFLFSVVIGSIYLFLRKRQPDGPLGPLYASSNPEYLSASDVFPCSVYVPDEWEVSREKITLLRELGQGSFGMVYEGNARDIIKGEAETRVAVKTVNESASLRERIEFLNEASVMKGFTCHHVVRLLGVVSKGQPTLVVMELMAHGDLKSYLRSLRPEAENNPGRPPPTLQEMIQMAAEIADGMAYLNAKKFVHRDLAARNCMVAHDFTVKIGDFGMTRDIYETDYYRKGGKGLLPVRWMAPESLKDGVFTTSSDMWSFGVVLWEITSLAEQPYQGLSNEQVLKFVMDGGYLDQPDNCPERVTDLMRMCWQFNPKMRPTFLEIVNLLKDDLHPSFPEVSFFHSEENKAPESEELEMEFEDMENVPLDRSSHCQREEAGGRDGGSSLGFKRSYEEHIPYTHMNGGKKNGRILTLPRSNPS

Src = Src (Homo sapiens, UniProt P12931); test: ExpresS Diversity Kinase Profile, Cerep (LANCE): Src
Sequence of Src (P12931 whole entry): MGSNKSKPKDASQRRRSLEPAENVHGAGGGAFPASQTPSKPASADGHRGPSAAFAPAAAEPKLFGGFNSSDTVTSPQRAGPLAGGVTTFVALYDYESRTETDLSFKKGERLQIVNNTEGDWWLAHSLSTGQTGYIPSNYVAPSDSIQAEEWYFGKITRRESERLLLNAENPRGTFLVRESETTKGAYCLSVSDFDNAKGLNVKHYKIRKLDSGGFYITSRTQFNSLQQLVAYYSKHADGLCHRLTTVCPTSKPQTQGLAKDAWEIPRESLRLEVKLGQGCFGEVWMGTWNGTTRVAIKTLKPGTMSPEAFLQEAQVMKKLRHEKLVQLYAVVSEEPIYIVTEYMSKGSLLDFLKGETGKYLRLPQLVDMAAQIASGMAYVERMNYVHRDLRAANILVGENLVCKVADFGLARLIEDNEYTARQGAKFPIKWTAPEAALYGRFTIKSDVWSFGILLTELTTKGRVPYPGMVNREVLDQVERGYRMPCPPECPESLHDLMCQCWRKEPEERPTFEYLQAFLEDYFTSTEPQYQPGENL

CDK1 = CDK1 (Homo sapiens, UniProt P06493); test: ExpresS Diversity Kinase Profile, Cerep (LANCE): CDK1
Sequence of CDK1 (P06493 whole entry): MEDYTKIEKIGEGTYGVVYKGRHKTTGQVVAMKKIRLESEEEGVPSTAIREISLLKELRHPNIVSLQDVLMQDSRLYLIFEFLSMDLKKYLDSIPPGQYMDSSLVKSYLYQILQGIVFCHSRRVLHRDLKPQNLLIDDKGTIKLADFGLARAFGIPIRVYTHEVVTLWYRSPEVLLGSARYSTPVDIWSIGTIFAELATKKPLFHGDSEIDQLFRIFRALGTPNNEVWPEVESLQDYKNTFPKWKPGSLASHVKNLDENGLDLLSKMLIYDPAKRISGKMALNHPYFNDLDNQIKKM
Sequence of CDK1 (P14635 whole entry partner): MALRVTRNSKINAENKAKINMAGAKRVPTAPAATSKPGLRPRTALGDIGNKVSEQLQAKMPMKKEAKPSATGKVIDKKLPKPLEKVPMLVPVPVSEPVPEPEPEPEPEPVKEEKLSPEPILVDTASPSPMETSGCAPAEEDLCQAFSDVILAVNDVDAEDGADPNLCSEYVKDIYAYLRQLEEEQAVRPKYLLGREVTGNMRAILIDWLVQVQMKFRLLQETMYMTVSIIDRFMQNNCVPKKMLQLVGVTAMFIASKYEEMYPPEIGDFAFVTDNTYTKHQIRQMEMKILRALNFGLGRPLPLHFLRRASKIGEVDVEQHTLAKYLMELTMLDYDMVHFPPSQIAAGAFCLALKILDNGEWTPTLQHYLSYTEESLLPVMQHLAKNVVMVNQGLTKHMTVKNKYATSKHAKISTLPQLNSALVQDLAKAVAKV

PKA = PKA (Homo sapiens, UniProt P17612); test: ExpresS Diversity Kinase Profile, Cerep (LANCE): PKA
PDK1 = molecular target: T3, PDK1 (Homo sapiens, UniProt O15530); test: ExpresS Diversity Kinase Profile, Cerep (LANCE): PDK1
T3 sequence (O15530 1-556): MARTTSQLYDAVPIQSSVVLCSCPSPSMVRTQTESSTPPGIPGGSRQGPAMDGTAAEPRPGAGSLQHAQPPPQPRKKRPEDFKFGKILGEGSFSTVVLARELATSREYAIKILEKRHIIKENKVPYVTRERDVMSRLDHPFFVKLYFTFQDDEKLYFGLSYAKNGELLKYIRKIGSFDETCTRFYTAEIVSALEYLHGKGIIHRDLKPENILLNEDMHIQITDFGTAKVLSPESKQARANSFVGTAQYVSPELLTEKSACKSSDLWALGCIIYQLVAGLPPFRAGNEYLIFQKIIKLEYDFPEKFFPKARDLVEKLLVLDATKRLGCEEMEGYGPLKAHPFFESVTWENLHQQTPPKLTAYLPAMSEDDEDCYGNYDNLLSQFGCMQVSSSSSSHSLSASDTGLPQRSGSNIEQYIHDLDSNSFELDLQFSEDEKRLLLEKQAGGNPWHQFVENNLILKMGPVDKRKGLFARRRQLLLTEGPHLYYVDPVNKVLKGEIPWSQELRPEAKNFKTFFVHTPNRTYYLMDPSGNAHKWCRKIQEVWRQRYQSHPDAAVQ

SGK1 = molecular target: T4, SGK1 (Homo sapiens, UniProt O00141); test: ExpresS Diversity Kinase Profile, Cerep (LANCE): SGK1
T4 sequence (O00141 1-431): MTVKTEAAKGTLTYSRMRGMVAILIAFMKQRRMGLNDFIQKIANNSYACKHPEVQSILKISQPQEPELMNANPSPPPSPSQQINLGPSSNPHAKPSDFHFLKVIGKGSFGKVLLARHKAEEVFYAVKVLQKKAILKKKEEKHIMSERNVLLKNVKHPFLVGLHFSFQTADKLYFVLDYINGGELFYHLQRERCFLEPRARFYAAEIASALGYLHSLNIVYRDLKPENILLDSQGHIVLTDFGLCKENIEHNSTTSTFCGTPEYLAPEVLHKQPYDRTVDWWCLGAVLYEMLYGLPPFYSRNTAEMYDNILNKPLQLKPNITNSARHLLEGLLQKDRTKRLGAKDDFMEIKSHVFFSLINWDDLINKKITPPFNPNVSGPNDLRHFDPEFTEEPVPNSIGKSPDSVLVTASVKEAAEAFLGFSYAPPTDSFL

[1] = Flag: Interference, read-out: % Inhibition of control values, 1st measurement
[2] = Flag: Interference, read-out: % Inhibition of control values, 2nd measurement
[3] = n = 2, Flag: Interference, read-out: % Inhibition of control values, Mean
[4] = n = 2, read-out: % Inhibition of control values, Mean
[5] = read-out: % Inhibition of control values, 1st measurement
[6] = read-out: % Inhibition of control values, 2nd measurement

`CN[C@@H]1C[C@H]2O[C@@](C)([C@@H]1OC)n1c3ccccc3c3c4c(c5c6ccccc6n2c5c31)C(=O)NC4` [Staurosporine, reference compound] was tested, and the nHill (NEK2; control) was 0.9, the nHill (c-Met; control) was 1.8 and the nHill (EphB4; control) was 1.1. The nHill (IRK; control) was 1.0, the nHill (Src; control) was 1.0 and the nHill (CDK1; control) was 1.1. The nHill (PKA; control) was greater than 3, the nHill (PDK1; control) was greater than 3 and the nHill (SGK1; control) was greater than 3.

With `CC1(C)CCC2=C(O1)c1ccccc1C(=O)C2=O` [β-Lapachone] the inhibition at 150 µM (NEK2; [1]) was 19%, the inhibition at 150 µM (NEK2; [2]) was 18.4% and the inhibition at 150 µM (NEK2; [3]) was 18.7%. For the same compound, the inhibition at 150 µM (c-Met; [1]) was 45.3%, the inhibition at 150 µM (c-Met; [2]) was 50.6% and the inhibition at 150 µM (c-Met; [3]) was 47.9%. It also gave an inhibition at 150 µM (EphB4; [1]) of 54.6%, an inhibition at 150 µM (EphB4; [2]) of 55.1% and an inhibition at 150 µM (EphB4; [3]) of 54.8%. The inhibition at 150 µM (IRK; [4]) was 50.8%, the inhibition at 150 µM (IRK; [5]) was 50.9% and the inhibition at 150 µM (IRK; [6]) was 50.6%. The inhibition at 150 µM (Src; [4]) was 37.8%, the inhibition at 150 µM (Src; [5]) was 36.1% and the inhibition at 150 µM (Src; [6]) was 39.5%. For the same compound, the inhibition at 150 µM (CDK1; [1]) was 66%, the inhibition at 150 µM (CDK1; [2]) was 68% and the inhibition at 150 µM (CDK1; [3]) was 67%. For the same compound, the inhibition at 150 µM (PKA; [1]) was -10.5%, the inhibition at 150 µM (PKA; [2]) was -5.4% and the inhibition at 150 µM (PKA; [3]) was -8%. For the same compound, the inhibition at 150 µM (PDK1; [4]) was 1.4%, the inhibition at 150 µM (PDK1; [5]) was 8.9% and the inhibition at 150 µM (PDK1; [6]) was -6.1%. It also gave an inhibition at 150 µM (SGK1; [4]) of 54.5%, an inhibition at 150 µM (SGK1; [5]) of 54.4% and an inhibition at 150 µM (SGK1; [6]) of 54.5%.
